MIC and CC50 data for eleven molecules are collected here from ChEMBL document CHEMBL4177696, “Identification of a diverse synthetic abietane diterpenoid library and insight into the structure-activity relationships for antibacterial activity” (Bioorg Med Chem Lett, 2017).

The subject of one series is Pseudomonas fluorescens. Briefly: Antibacterial activity against Pseudomonas fluorescens measured after 24 hrs. The class given is functional.
In the next series the test system is Escherichia coli. Description: Antibacterial activity against Escherichia coli measured after 24 hrs. The series is classed as functional.
Series [1] can be described thus: Cytotoxicity against HFF measured after 72 hrs by MTT assay. The series is classed as cell-based. As to conditions: human, HFF cells. On the technique in general: Formazan colour is commonly taken as a measure of viable cells.
Series [2] can be described thus: Cytotoxicity against human HL-7702 cells measured after 72 hrs by MTT assay. The class given is cell-based. As to conditions: HL-7702 (L02) cells.
A further series has as its system Staphylococcus aureus. Briefly: Antibacterial activity against Staphylococcus aureus measured after 24 hrs. The class given is functional.
The next series concerns Bacillus subtilis. Description: Antibacterial activity against Bacillus subtilis measured after 24 hrs. The class given is functional.

Values after ≈ are worked out from the molar mass of the structure shown.

With `COc1cccc2c1CC[C@H]1[C@H]3COC(=O)[C@@]3(O)C(=O)C[C@]21C`, the MIC against Pseudomonas fluorescens was determined as 1.6 µg/mL (≈ 5.06 µM); against Escherichia coli, 1.6 µg/mL (≈ 5.06 µM); against Staphylococcus aureus it was 1.6 µg/mL (≈ 5.06 µM); in the series on Bacillus subtilis, 0.8 µg/mL (≈ 2.53 µM). Besides, the CC50 at 72 h is > 50 µg/mL in series [1] and 47.5 µg/mL (≈ 150 µM) in series [2].
Take `COC(=O)[C@]1(C)CCC[C@]2(C)c3ccc(C(C)C)c(NC(=O)Cn4cc(-c5cccc(NC(C)=O)c5)nn4)c3CC[C@@H]12`: the MIC stood at 6.3 µg/mL (≈ 11 µM) in the series on Pseudomonas fluorescens, 3.1 µg/mL (≈ 5.42 µM) with Escherichia coli, 6.3 µg/mL (≈ 11 µM) against Staphylococcus aureus and 6.3 µg/mL (≈ 11 µM) against Bacillus subtilis. The CC50 at 72 h worked out at 12.2 µg/mL (≈ 21.3 µM) in series [1] and 9.7 µg/mL (≈ 17 µM) in series [2].
For the molecule `COC(=O)[C@]1(C)CCC[C@]2(C)c3ccc(C(C)C)c(NC(=O)Cn4cc(-c5cncnc5)nn4)c3CC[C@@H]12`, the MIC in the series with Pseudomonas fluorescens was determined as 1.6 µg/mL (≈ 3.1 µM); in the series with Escherichia coli it was 1.6 µg/mL (≈ 3.1 µM); against Staphylococcus aureus, 1.6 µg/mL (≈ 3.1 µM); against Bacillus subtilis it was 3.1 µg/mL (≈ 6 µM). Also, the CC50 at 72 h in series [1] was 41.8 µg/mL (≈ 80.9 µM); in series [2], 31.7 µg/mL (≈ 61.4 µM).
Regarding `CCOCOC[C@]12CCC(=C(SC)SC)C(=O)[C@@H]1CCc1c2ccc(C(C)C)c1OC`, the MIC was found to be 1.6 µg/mL (≈ 3.44 µM) with Pseudomonas fluorescens, 6.3 µg/mL (≈ 13.6 µM) against Escherichia coli, 6.3 µg/mL (≈ 13.6 µM) in the series with Staphylococcus aureus and 0.8 µg/mL (≈ 1.72 µM) against Bacillus subtilis. Also, the CC50 at 72 h in series [1] was 11.4 µg/mL (≈ 24.5 µM); in series [2] it was 13.2 µg/mL (≈ 28.4 µM).
Take `CCOCO[C@]12CCC[C@]3(CO1)c1ccc(C(C)C)c(OC)c1CC[C@@H]23`: the MIC stood at 3.1 µg/mL (≈ 8.6 µM) against Pseudomonas fluorescens, 3.1 µg/mL (≈ 8.6 µM) in the series with Escherichia coli, 3.1 µg/mL (≈ 8.6 µM) with Staphylococcus aureus and 6.3 µg/mL (≈ 17.5 µM) in the series on Bacillus subtilis. Further, the CC50 at 72 h in series [1] came out at 8.2 µg/mL (≈ 22.7 µM); in series [2], 5.4 µg/mL (≈ 15 µM).
For `C=C1C(=O)CC[C@]2(C)c3cccc(OC)c3CC[C@@H]12`, the minimum inhibitory concentration (MIC) against Pseudomonas fluorescens was 3.1 µg/mL (≈ 12.1 µM); in the series on Escherichia coli, 6.3 µg/mL (≈ 24.6 µM); in the series on Staphylococcus aureus, 3.1 µg/mL (≈ 12.1 µM); with Bacillus subtilis, 6.3 µg/mL (≈ 24.6 µM). The CC50 at 72 h in series [1] worked out at 9.1 µg/mL (≈ 35.5 µM); in series [2], 9.3 µg/mL (≈ 36.3 µM).
On to `COc1cccc2c1CC[C@H]1[C@H]3COC(=O)C3=CC[C@]21C`, for which the MIC was 6.3 µg/mL (≈ 22.2 µM) against Pseudomonas fluorescens, 3.1 µg/mL (≈ 10.9 µM) in the series with Escherichia coli, 6.3 µg/mL (≈ 22.2 µM) with Staphylococcus aureus and 6.3 µg/mL (≈ 22.2 µM) against Bacillus subtilis. Besides, the CC50 at 72 h was determined as 25.2 µg/mL (≈ 88.6 µM) in series [1] and 9.9 µg/mL (≈ 34.8 µM) in series [2].
For `COC(=O)[C@]1(C)CCC[C@]2(C)c3ccc(C(C)C)c(NC(=O)Cn4cc(-c5cccnc5)nn4)c3CC[C@@H]12`, the MIC in the series on Pseudomonas fluorescens was determined as 6.3 µg/mL (≈ 12.2 µM); in the series on Escherichia coli, 3.1 µg/mL (≈ 6.01 µM); in the series on Staphylococcus aureus, 3.1 µg/mL (≈ 6.01 µM); in the series on Bacillus subtilis, 12.5 µg/mL (≈ 24.2 µM). Moreover, the figures for the CC50 at 72 h in series [1] and in series [2] were 48.2 µg/mL (≈ 93.5 µM) and 47.9 µg/mL (≈ 92.9 µM), respectively.
In the case of `COc1c(C(C)C)ccc2c1[C@H](O)C=C1C3=C(CCC12C)C(=O)OC3` (single isomer, unassigned), the MIC in the series with Pseudomonas fluorescens came out at 3.1 µg/mL (≈ 9.11 µM); against Escherichia coli it was 3.1 µg/mL (≈ 9.11 µM); against Staphylococcus aureus, 3.1 µg/mL (≈ 9.11 µM); with Bacillus subtilis, 6.3 µg/mL (≈ 18.5 µM). Besides, the CC50 at 72 h is 9.2 µg/mL (≈ 27 µM) in series [1] and 10.3 µg/mL (≈ 30.3 µM) in series [2].
In the case of `COc1c(C(C)C)ccc2c1CC[C@H]1c3cocc3CC[C@]21C`, the minimum inhibitory concentration (MIC) with Pseudomonas fluorescens was 100 µg/mL (≈ 322 µM); in the series on Escherichia coli, 100 µg/mL (≈ 322 µM); in the series with Staphylococcus aureus it was 50 µg/mL (≈ 161 µM); in the series with Bacillus subtilis, 100 µg/mL (≈ 322 µM).
Turning to `COC(=O)[C@]1(C)CCC[C@]2(C)c3ccc(C(C)C)c(NC(=O)Cn4cc(-c5ccc(F)cc5)nn4)c3CC[C@@H]12`, the MIC was found to be 50 µg/mL (≈ 93.9 µM) in the series on Pseudomonas fluorescens, 50 µg/mL (≈ 93.9 µM) against Escherichia coli, 50 µg/mL (≈ 93.9 µM) in the series with Staphylococcus aureus and 25 µg/mL (≈ 46.9 µM) in the series with Bacillus subtilis.

In general, MIC refers to the least concentration at which growth counts as inhibited. Low readings indicate inhibition by little substance, high ones a need for much substance. The term CC50 denotes the concentration that lowers cell viability or growth by half. Lower therefore signals greater toxicity to the cells.
